What follows are compounds tested against T1, guinea pig liver transglutaminase (UniProt P08587) (assay: transglutaminase-competition assay (incorporation of [3H]putrescine into dimethylated casein)). Conditions: 0.1 μM [3H]putrescine; 30 mM tris(hydroxymethyl)aminomethane HCl pH 8.0; FIG. 2.
T1 construct: guinea pig liver transglutaminase; from tissue; host or cells: guinea pig liver
T1 sequence (P08587 2-690 limits assumed): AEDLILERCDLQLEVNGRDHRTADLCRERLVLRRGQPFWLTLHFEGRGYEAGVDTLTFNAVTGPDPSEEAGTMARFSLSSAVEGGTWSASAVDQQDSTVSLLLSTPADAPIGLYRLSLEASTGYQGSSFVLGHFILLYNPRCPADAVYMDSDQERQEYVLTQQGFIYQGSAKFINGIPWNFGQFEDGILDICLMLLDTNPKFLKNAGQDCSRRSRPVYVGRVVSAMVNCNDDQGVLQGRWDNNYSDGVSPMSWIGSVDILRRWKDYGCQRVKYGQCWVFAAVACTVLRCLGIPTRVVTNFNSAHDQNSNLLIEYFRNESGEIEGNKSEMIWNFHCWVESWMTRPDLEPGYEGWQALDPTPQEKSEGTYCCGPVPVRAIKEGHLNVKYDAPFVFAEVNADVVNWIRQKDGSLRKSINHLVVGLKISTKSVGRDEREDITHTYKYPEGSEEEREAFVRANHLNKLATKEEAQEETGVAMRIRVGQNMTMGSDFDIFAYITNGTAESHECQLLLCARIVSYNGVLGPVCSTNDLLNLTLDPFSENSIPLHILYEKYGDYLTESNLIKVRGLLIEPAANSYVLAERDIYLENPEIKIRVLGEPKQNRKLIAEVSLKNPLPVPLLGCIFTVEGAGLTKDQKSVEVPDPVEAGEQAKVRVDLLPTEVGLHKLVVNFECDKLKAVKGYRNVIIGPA
Assay type: biochemical
Description: The transglutaminase competition assay was conducted in the presence of 30 mM tris(hydroxymethyl)aminomethane HCl, pH 8.3 (closed circles); 30 mM glycine, pH 9.25, (open circles); 30 mM glycine, pH 9.75 (open triangles); or 30 mM glycine, pH 10.0 (open squares). The data were obtained in the presence of increasing amounts of unlabeled putrescine.
The ability of transglutaminase to incorporate polyamines into a covalent conjugate with protein is the basis for an assay procedure based on competition between radiolabeled polyamine and unlabeled polyamine-containing standards or samples as the enzyme's substrates. However, because the affinity of transglutaminase for amine-containing substrates is relatively low the assay reaction could not be conducted under saturating substrate conditions and yield the level of sensitivity required to measure the polyamine content of biological samples. Therefore, assay conditions were developed which would make the protein acceptor substrate ratelimiting and allow the reaction to be run to completion, the radioactive and unlabeled polyamine competing for the completion, the radioactive and unlabeled polyamine competing for the limited number of conjugation sites. […] In all cases, the maximum incorporation was achieved by 30-60 minutes and was stable to another hour.
The reaction was initiated by the addition of transglutaminase solution (10 μl), incubated 60 minutes at 37° C. […] Triplicate aliquots (35 μl) of the solution were spotted on 1.5×8 cm instant thin-layer chromatography strips at a site 1.5 cm above the bottom edge which had previously received 60 μl of 20% trichloroacetic acid. Ascending chromatography was immediately carried out in 5% trichloroacetic acid containing 0.2 M KCl. After the solvent front had reached the top of the strip (ca. 10 minutes), a 2.5-cm segment from 1.5 cm above the 1 cm below the origin was cut out, dried, and the segment counted in 6 ml of scintillation liquid (toluene/Omnifluor, New England Nuclear, Boston).

SMILES | 50% displacement of [3H]putrescine incorporation
NCCCCN [putrescine, Putrescine] | 800 pmol
NCCCCNCCCN [spermidine, Spermidine] | 800 pmol
NCCCNCCCCNCCCN [spermine] | 800 pmol

Source: patent US4582794A, “Method of determining polyamine content of biological fluids” (The University of Arizona Foundation, priority 1982, dated 1986)
